The target of the experiment is T1, hsortilin (Homo sapiens, UniProt Q99523).
T1 construct: Human sortilin (hsortilin) (Ser78-Asn755) with C-terminal 6-His tag; purchased R&D Systems, Inc. (Minneapolis, Minn.)
T1 sequence (Q99523 78-755): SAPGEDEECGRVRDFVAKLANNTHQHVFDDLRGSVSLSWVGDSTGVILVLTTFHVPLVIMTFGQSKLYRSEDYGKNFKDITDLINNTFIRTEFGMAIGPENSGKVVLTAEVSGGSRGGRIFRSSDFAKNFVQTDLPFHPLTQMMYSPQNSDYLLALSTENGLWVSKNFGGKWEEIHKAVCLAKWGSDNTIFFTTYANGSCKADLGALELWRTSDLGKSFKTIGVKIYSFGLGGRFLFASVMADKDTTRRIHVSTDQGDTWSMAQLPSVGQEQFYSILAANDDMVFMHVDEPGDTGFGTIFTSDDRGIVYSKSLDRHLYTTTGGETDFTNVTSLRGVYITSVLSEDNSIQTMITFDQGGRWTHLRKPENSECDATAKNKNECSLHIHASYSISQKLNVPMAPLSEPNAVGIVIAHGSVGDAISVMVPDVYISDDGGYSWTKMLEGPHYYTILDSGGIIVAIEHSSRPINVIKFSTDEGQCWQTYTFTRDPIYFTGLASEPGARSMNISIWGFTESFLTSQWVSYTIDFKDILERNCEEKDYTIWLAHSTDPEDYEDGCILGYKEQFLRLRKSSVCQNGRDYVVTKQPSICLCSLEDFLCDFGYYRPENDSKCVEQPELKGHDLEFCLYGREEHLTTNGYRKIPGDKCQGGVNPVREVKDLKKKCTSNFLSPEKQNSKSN
The experiment is described as follows: Surface plasmon resonance on hsortilin immobilized on CM7 chips (Example 2). The class given is binding. On the procedure: Surface plasmon resonance (SPR) measurements were performed on a Biacore T200 instrument equipped with two separate CM7 sensor chips, one with about 20,000 response units (RU) and another with about 27,000 RU of hsortilin covalently immobilized. […] For all other SPR injections, regeneration consisted of injections of running buffer alone. GE BIAcore T200 evaluation software version 3.0 (BIAevaluate) was used to analyze and export results. […] PIP3 containing nanodiscs were flowed at 2:1 dilutions to obtain kinetic data fitted using about 27,000 RU CM7 surface. Kinetic fit generated with BIAevaluate and local Rmax using Langmuir 1:1 binding model exported from BIAevaluate to Microsoft Excel 2016 with fit indicated by the black line.
Background: In SPR one partner is held on a chip, and binding of the other changes the refractive index at the surface.

Structures are written as SMILES. Residues, ends and D or L forms follow the SMILES beside them.

This note sets out measurements from patent US10478421B1, “Sortilin binding compounds, formulations, and uses thereof” (University of Florida, priority 2016, dated 2019).

For orientation: Kd means a measure of binding affinity in units of concentration. Read a low Kd as higher affinity. In general, IC50 refers to the concentration that gives 50% inhibition.

Turning to `CC[C@H](C)[C@H](NC(=O)[C@H](Cc1ccc(O)cc1)NC(=O)[C@@H]1CCCN1)C(=O)N[C@@H](CC(C)C)C(=O)O` [C-term NT, P—Y-I-L, reference compound] (H-PYIL-OH; N-terminus and C-terminus assumed), for the setting “C-term NT alone, steady state”, binding was put at a Kd of 0.138 µM.

For the compound `CCCC(=O)OC[C@H](COP(=O)(O)O[C@H]1[C@H](O)[C@@H](OP(=O)(O)O)[C@H](OP(=O)(O)O)[C@@H](OP(=O)(O)O)[C@H]1O)OC(=O)CCC` [diC4-PIP3, dibutanoyl PIP3, reference compound], the IC50 (100 nM NT, read-out: IC50 for inhibition of full length NT binding to sortilin) is approximately 0.75 µM.
